In PubChem BioAssay AID248 (DTP/NCI, 2004):
Several values for one entry are separate records, joined by “and”; a condition that tells them apart may be missing. Equal values may be shown once. Toxic doses and inconclusive results are not listed.

Test system: L1210 leukemia ip in BDF1 mice, survival T/C
Assay: NCI In Vivo Anticancer Drug Screen. Data for tumor model L1210 Leukemia (intraperitoneal) in B6D2F1 (BDF1) mice
Details: endpoint: mean survival time, higher = longer survival
Outline: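 Tumor was transplanted into mice, which were then dosed with test compound or vehicle alone. Survival was recorded for each group, and the treated figure was expressed relative to the control figure.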

[1] = dose: 100.0 mg/kg/injection, schedule: Q01DX001 (ip), vehicle: carboxymethylcellulose (CMC)
[2] = dose: 100.0 mg/kg/injection, schedule: Q01DX001 (ip), vehicle: saline
[3] = dose: 200.0 mg/kg/injection, schedule: Q01DX001 (ip), vehicle: carboxymethylcellulose (CMC)
[4] = dose: 200.0 mg/kg/injection, schedule: Q01DX001 (ip), vehicle: saline
[5] = dose: 400.0 mg/kg/injection, schedule: Q01DX001 (ip), vehicle: carboxymethylcellulose (CMC)
[6] = dose: 400.0 mg/kg/injection, schedule: Q01DX001 (ip), vehicle: saline

## O=C(O)C1=C/C(=C\C=[N+]2c3cc(O)c(OC4OC(CO)C(O)C(O)C4O)cc3CC2C(=O)[O-])CC(C(=O)O)N1 (stereo unspecified)
dose: 100.0 mg/kg/injection, schedule: Q04DX003 (ip), vehicle: saline with Tween-80
  T/C: 97 % of control
dose: 200.0 mg/kg/injection, schedule: Q04DX003 (ip), vehicle: saline with Tween-80
  T/C: 94 % of control
dose: 400.0 mg/kg/injection, schedule: Q04DX003 (ip), vehicle: saline with Tween-80
  T/C: 95 % of control

## CNC(=O)OCCOC(=O)c1ccc(OC(=O)NC)cc1
dose: 25.0 mg/kg/injection, schedule: Q01DX001 (ip), vehicle: carboxymethylcellulose (CMC)
  T/C: 109 % of control
dose: 25.0 mg/kg/injection, schedule: Q01DX001 (ip), vehicle: other
  T/C: 96 % of control
dose: 25.0 mg/kg/injection, schedule: Q01DX001 (ip), vehicle: saline
  T/C: 95 % of control
dose: 45.0 mg/kg/injection, schedule: Q01DX001 (ip), vehicle: saline
  T/C: 91 % of control
dose: 50.0 mg/kg/injection, schedule: Q01DX001 (ip), vehicle: carboxymethylcellulose (CMC)
  T/C: 93 % of control
dose: 50.0 mg/kg/injection, schedule: Q01DX001 (ip), vehicle: other
  T/C: 100 % of control
dose: 50.0 mg/kg/injection, schedule: Q01DX001 (ip), vehicle: saline
  T/C: 96 % of control
dose: 67.0 mg/kg/injection, schedule: Q01DX001 (ip), vehicle: saline
  T/C: 100 % of control
[1]
  T/C: 103 % of control and 92 % of control
dose: 100.0 mg/kg/injection, schedule: Q01DX001 (ip), vehicle: other
  T/C: 94 % of control
[2]
  T/C: 95 % of control and 101 % of control and 202 % of control
dose: 150.0 mg/kg/injection, schedule: Q01DX001 (ip), vehicle: saline
  T/C: 95 % of control
[3]
  T/C: 97 % of control and 101 % of control
dose: 200.0 mg/kg/injection, schedule: Q01DX001 (ip), vehicle: other
  T/C: 96 % of control
[4]
  T/C: 88 % of control and 90 % of control
[5]
  T/C: 97 % of control
[6]
  T/C: 93 % of control and 90 % of control

## O=c1[nH]c(=O)c2n[nH]nc2[nH]1
dose: 1.0 mg/kg/injection, schedule: Q01DX009 (ip), vehicle: saline
  T/C: 103 % of control
dose: 2.0 mg/kg/injection, schedule: Q01DX009 (ip), vehicle: saline
  T/C: 93 % of control
dose: 4.0 mg/kg/injection, schedule: Q01DX009 (ip), vehicle: saline
  T/C: 95 % of control
dose: 8.0 mg/kg/injection, schedule: Q01DX009 (ip), vehicle: saline
  T/C: 103 % of control
dose: 16.0 mg/kg/injection, schedule: Q01DX009 (ip), vehicle: saline
  T/C: 101 % of control
dose: 16.0 mg/kg/injection, schedule: Q01DX015 (ip), vehicle: carboxymethylcellulose (CMC)
  T/C: 88 % of control
dose: 75.0 mg/kg/injection, schedule: Q01DX009 (ip), vehicle: saline
  T/C: 110 % of control
[1]
  T/C: 96 % of control
dose: 115.0 mg/kg/injection, schedule: Q01DX009 (ip), vehicle: saline
  T/C: 107 % of control
dose: 125.0 mg/kg/injection, schedule: Q01DX015 (ip), vehicle: carboxymethylcellulose (CMC)
  T/C: 92 % of control
dose: 170.0 mg/kg/injection, schedule: Q01DX009 (ip), vehicle: saline
  T/C: 98 % of control
[3]
  T/C: 102 % of control
dose: 255.0 mg/kg/injection, schedule: Q01DX009 (ip), vehicle: saline
  T/C: 97 % of control
dose: 385.0 mg/kg/injection, schedule: Q01DX009 (ip), vehicle: saline
  T/C: 105 % of control
[5]
  T/C: 91 % of control

## C1CC[N-]CC1.Oc1ccccc1C=NCCN=Cc1ccccc1O.[Co]
dose: 6.25 mg/kg/injection, schedule: Q04DX002 (ip), vehicle: saline with Tween-80
  T/C: 90 % of control

## Nc1ncnc2scnc12
[2]
  T/C: 102 % of control
[4]
  T/C: 99 % of control
[6]
  T/C: 100 % of control

## CS(=O)(=O)OCCN(CCOS(C)(=O)=O)c1ccc(C=Nc2cccc(C(=O)O)c2)cc1
dose: 2.5 mg/kg/injection, schedule: Q04DX003 (ip), vehicle: Klucel (hydroxypropylcellulose) (HPC)
  T/C: 111 % of control
dose: 5.0 mg/kg/injection, schedule: Q04DX003 (ip), vehicle: Klucel (hydroxypropylcellulose) (HPC)
  T/C: 120 % of control
dose: 80.0 mg/kg/injection, schedule: Q04DX003 (ip), vehicle: Klucel (hydroxypropylcellulose) (HPC)
  T/C: 91 % of control

## O=S(=O)(/C(=C\c1ccccc1)c1ccccc1)c1ccccc1
[2]
  T/C: 90 % of control
[4]
  T/C: 93 % of control
[6]
  T/C: 93 % of control

## CCCOC(=O)N(C)c1ccccc1
dose: 75.0 mg/kg/injection, schedule: Q04DX002 (ip), vehicle: Klucel (hydroxypropylcellulose) (HPC)
  T/C: 101 % of control
dose: 150.0 mg/kg/injection, schedule: Q04DX002 (ip), vehicle: Klucel (hydroxypropylcellulose) (HPC)
  T/C: 101 % of control
dose: 300.0 mg/kg/injection, schedule: Q04DX002 (ip), vehicle: Klucel (hydroxypropylcellulose) (HPC)
  T/C: 101 % of control

## COc1ccc(C(=O)/C=C2\C(=O)Nc3ccc(Br)cc32)cc1
dose: 100.0 mg/kg/injection, schedule: Q04DX002 (ip), vehicle: Klucel (hydroxypropylcellulose) (HPC)
  T/C: 107 % of control
dose: 200.0 mg/kg/injection, schedule: Q04DX002 (ip), vehicle: Klucel (hydroxypropylcellulose) (HPC)
  T/C: 100 % of control
dose: 400.0 mg/kg/injection, schedule: Q04DX002 (ip), vehicle: Klucel (hydroxypropylcellulose) (HPC)
  T/C: 93 % of control
